For eleven compounds, IC50 results are on record in patent publication US20260217687A1 (NeoPhore Limited, priority 2023, published 2026).

The target of this assay is T1, recombinant N-terminal MLH1 (residues 15-340) (Homo sapiens, UniProt P40692).
T1 construct: recombinant N-terminal MLH1 (residues 15-340)
T1 sequence (P40692 15-340): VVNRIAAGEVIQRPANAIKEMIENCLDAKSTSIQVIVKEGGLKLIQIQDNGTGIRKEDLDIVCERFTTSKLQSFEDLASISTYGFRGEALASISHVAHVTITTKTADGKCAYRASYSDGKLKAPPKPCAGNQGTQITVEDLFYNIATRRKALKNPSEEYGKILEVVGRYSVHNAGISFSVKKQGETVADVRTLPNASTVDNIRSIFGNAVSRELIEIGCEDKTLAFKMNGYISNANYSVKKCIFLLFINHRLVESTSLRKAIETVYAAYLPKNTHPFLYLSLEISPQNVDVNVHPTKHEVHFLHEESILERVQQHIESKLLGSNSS
Description: Fluorescence Polarisation Assay for MLH1. As to conditions: 100 nM N-terminal MLH1, 5 nM probe compound. The assay is classed as binding. How it is done:
Fluorescence Polarisation Assay for MLH1
Test compounds, as 10 mM DMSO stocks, were dispensed into a 384-well Low Flange Black Flat Bottom Polystyrene Non-binding Surface plate (Corning®, item number 3575) using a Labcyte Echo acoustic liquid handler. […] 20 μL of a 2× solution (200 nM) of recombinant N-terminal MLH1 (residues 15-340) in assay buffer (25 mM HEPES, pH 7.5, 250 mM NaCl, 10 mM MgCl2, 0.01% Triton X-100, 5 mM Dithiothreitol) was added to all wells in columns 1-23 and 20 μL assay buffer was added to all wells in column 24 using an E1-ClipTip pipette (ThermoFisher). Plates were centrifuged for 1 minute at 250 xg and were incubated at room temperature for 30 minutes prior to the addition of 20 μL of 2×(10 nM) of 5-((5-(4-((2-(2-(Benzyloxy)-4,6-dihydroxybenzoyl)isoindolin-5-yl)methyl)piperazin-1-yl)pentyl)carbamoyl)-2-(6-(dimethylamino)-3-(dimethyliminio)-3H-xanthen-9-yl)benzoate (referred to hereinafter as “probe compound”) in assay buffer (prepared from a 1 mM DMSO stock) with an E1-ClipTip pipette (ThermoFisher). The final concentration of N-terminal MLH1 was 100 nM and the final concentration of the probe compound was 5 nM. Compound plates were centrifuged for 1 minute at 250 xg for 1 minute and immediately read on a PheraStar FSX (fitted with 384-well aperture spoon and 590 675 675 FP optic module). The gain and focus were adjusted before each plate was read so that the polarisation of a no enzyme control (column 24) was equal to 35 mP. Data were normalised against the no inhibitor controls (column 23) and no enzyme controls (column 24).
(Fluorescence polarisation rises when a labelled molecule tumbles more slowly, as on binding a larger partner.)

Structures are written as SMILES.

With `CN(C)Cc1cc2c(c(N[C@H]3CCOC3)c1)CN(C(=O)c1c(O)cc(C(F)F)cc1OCc1ccccc1)CC2` [Example 4.21, (S)-(2-(Benzyloxy)-4-(difluoromethyl)-6-hydroxyphenyl)(6-((dimethylamino)methyl)-8-((tetrahydrofuran-3-yl)amino)-3,4-dihydroisoquinolin-2(1H)-yl)methanone], the 50% inhibitory concentration (IC50) (usually the concentration that gives 50% inhibition) was less than 100 nM. As for `O=C(c1c(O)cc(C(F)F)cc1OCc1ccccc1)N1CCc2cc(Cn3ccnc3)cc(N[C@H]3CCOC3)c2C1` [Example 4.22, (S)-(6-((1H-Imidazol-1-yl)methyl)-8-((tetrahydrofuran-3-yl)amino)-3,4-dihydroisoquinolin-2(1H)-yl)(2-(benzyloxy)-4-(difluoromethyl)-6-hydroxyphenyl)methanone], the figure is less than 100 nM. The same measure for `COc1ccc2c(c1N[C@H]1CCOC1)CN(C(=O)c1c(O)cc(C(F)F)cc1OCc1ccccc1)CC2` [Example 4.23, (S)-(2-(Benzyloxy)-4-(difluoromethyl)-6-hydroxyphenyl)(7-methoxy-8-((tetrahydrofuran-3-yl)amino)-3,4-dihydroisoquinolin-2(1H)-yl)methanone]: 1000 to 10000 nM; for `Cn1cncc1-c1cc2c(c(N[C@H]3CCOC3)c1)CN(C(=O)c1c(O)cc(C(F)F)cc1OCc1ccccc1)C2` [Example 4.24, (S)-(2-(Benzyloxy)-4-(difluoromethyl)-6-hydroxyphenyl)(6-(1-methyl-1H-imidazol-5-yl)-4-((tetrahydrofuran-3-yl)amino)isoindolin-2-yl)methanone]: 100 to 1000 nM; for `Cn1cnc(-c2cc3c(c(N[C@H]4CCOC4)c2)CN(C(=O)c2c(O)cc(C(F)F)cc2OCc2ccccc2)C3)c1` [Example 4.25, (S)-(2-(Benzyloxy)-4-(difluoromethyl)-6-hydroxyphenyl)(6-(1-methyl-1H-imidazol-4-yl)-4-((tetrahydrofuran-3-yl)amino)isoindolin-2-yl)methanone]: 100 to 1000 nM. With `Cn1cncc1-c1cc2c(c(N[C@H]3CCOC3)c1)CN(C(=O)c1c(O)cc(C(F)F)cc1OCc1ccccc1)CC2` [Example 4.26, (S)-(2-(Benzyloxy)-4-(difluoromethyl)-6-hydroxyphenyl) (6-(1-methyl-1H-imidazol-5-yl)-8-((tetrahydrofuran-3-yl)amino)-3,4-dihydroisoquinolin-2(1H)-yl)methanone], the IC50 was in the range of 100 to 1000 nM. The same measure for `Cn1cnc(-c2cc3c(c(N[C@H]4CCOC4)c2)CN(C(=O)c2c(O)cc(C(F)F)cc2OCc2ccccc2)CC3)c1` [Example 4.27, (S)-(2-(Benzyloxy)-4-(difluoromethyl)-6-hydroxyphenyl) (6-(1-methyl-1H-imidazol-4-yl)-8-((tetrahydrofuran-3-yl)amino)-3,4-dihydroisoquinolin-2(1H)-yl)methanone]: 100 to 1000 nM; for `COCCNc1cccc2c1CN(C(=O)c1c(O)cc(C(F)F)cc1OCc1ccccc1)C2` [Example 4.28, (2-(Benzyloxy)-4-(difluoromethyl)-6-hydroxyphenyl) (4-((2-methoxyethyl)amino)isoindolin-2-yl)methanone]: 100 to 1000 nM.

In the case of `CN(C)C(=O)CNc1cccc2c1CN(C(=O)c1c(O)cc(C(F)F)cc1OCc1ccccc1)C2` [Example 4.29, 2-((2-(2-(Benzyloxy)-4-(difluoromethyl)-6-hydroxybenzoyl)isoindolin-4-yl)amino)-N, N-dimethylacetamide], the IC50 lay within 100 to 1000 nM. The same measure for `CN1CCN(Cc2ccc3c(c2)CN(C(=O)c2c(O)cc(C(F)F)cc2OCc2ccccc2)C3)CC1` [Example 4.30, (2-(Benzyloxy)-4-(difluoromethyl)-6-hydroxyphenyl) (5-((4-methylpiperazin-1-yl)methyl)isoindolin-2-yl) methanone]: 100 to 1000 nM; for `CN(C)CCOc1ccc2c(c1)CN(C(=O)c1c(O)cc(C(F)F)cc1OCc1ccccc1)C2` [Example 4.31, (2-(Benzyloxy)-4-(difluoromethyl)-6-hydroxyphenyl)(5-(2-(dimethylamino)ethoxy)isoindolin-2-yl)methanone]: 100 to 1000 nM.
